Source: PubChem BioAssay AID624265 (Broad Institute, 2012)
Where “and” joins values, the source holds several entries; their conditions need not be identical. Equal entries are not always repeated. Calls of active or inactive are those of the source.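 The calls were made as follows: active = at a dose no more than twice the top valid tested dose, the fitted curve drops below -35% activity change; inactive = the rest, rising-direction activity included.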

Assay: cytotoxicity in NIH3T3 fibroblasts, dose response, cytotoxicity control for HSP40 inhibitor project, cell-based, CellTiter-Glo luminescence, cherry-pick, set 2 (AID 624265);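 also: cells exposed to compound for 48 hours before the ATP read; 0% = median neutral control signal and -100% = no luminescence left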
Conditions: NIH3T3 viability, CellTiter-Glo ATP luminescence

Row | SMILES | activity change, negative = toxicity (at 50 µM (top of the series)) | activity change, negative = toxicity (at 5.6 µM (top of the series))
1 | Cc1csc(NC(=O)C(C)Oc2ccc(Cl)cc2C)n1 (stereo unspecified) | 8.91% (inactive) | –
2 | COc1ccc(N=N/C(=C\O)C(=O)c2cccs2)cc1 | 14.1% (inactive) | –
3 | O=[N+]([O-])c1cccc(C=NNc2ccc3ccccc3n2)c1O | -29.6% (inactive) | –
4 | CCOC(=O)c1cnc(-n2nc(C)cc2C)nc1NC1CCCC1 | 37.9% (inactive) | –
5 | CCCCC(CC)c1nnc(NC(=O)c2cccs2)s1 (stereo unspecified) | -1.51% (inactive) | –
6 | Cc1nn(CCC#N)c(N)c1C1(O)C(=O)Nc2c(Cl)cc(Cl)cc21 (stereo unspecified) | -6.69% (inactive) | –
7 | Cc1ccc(Sc2ccc(NC(=O)CCl)cc2)cc1C | 2.95% (inactive) | –
8 | CC(/C=N/n1c(COc2ccccc2)n[nH]c1=S)=C\c1ccccc1 | 14.6% (inactive) | –
9 | O=C(Nc1ccc(Br)c(C(F)(F)F)c1)c1ccccc1 | -9.98% (inactive) | –
10 | CCOC(=O)c1ccc(NC(=S)N(Cc2cccnc2)Cc2ccco2)cc1 | 2.56% (inactive) | –
11 | O=C(O)CSc1nc(-c2ccc(Cl)cc2)nc2c1oc1ccccc12 | -3.22% (inactive) | –
12 | CC1=CC(C)(C)N(S(=O)(=O)c2ccc(C)cc2)c2ccc(C)cc21 | 9.86% (inactive) | –
13 | Cc1ccc(NS(=O)(=O)c2ccc(N3CCN(c4ccc(O)cc4)CC3)c([N+](=O)[O-])c2)c(C)c1 | 24.6% (inactive) | –
14 | C=C(C)COc1ccc(-c2[nH]ncc2-c2ccc(Br)cc2)c(O)c1 | 1.03% (inactive) | –
15 | CC(=O)C1=C(c2cccc([N+](=O)[O-])c2)N(C(C)=O)n2c(C)nnc2S1 | 4.36% (inactive) | –
16 | O=C(OCC(=O)C12CC3CC(CC(C3)C1)C2)c1ccc(O)cc1 | 0.345% (inactive) | –
17 | Cc1cccc(NC(=S)NC(C)CCc2ccccc2)c1 (stereo unspecified) | 12.9% (inactive) | –
18 | C=CCNc1nc(-c2ccccn2)nnc1-c1ccccc1 | -23.8% (inactive) | –
19 | O/N=C(\c1ccc(Cl)cc1Cl)c1ncc(C(F)(F)F)cc1Cl | -0.787% (inactive) | –
20 | COc1ccccc1-c1sc2cc3c(cc2c1C#Cc1cncn1C)OCO3 | 17.2% (inactive) | –
21 | O=C(NCC1CC1(Cl)Cl)Nc1ccc(Cl)c(Cl)c1 (stereo unspecified) | 17.4% (inactive) | –
22 | COc1ccc(O)c(C(=O)CC(=O)c2ccccc2C)c1 | 0.039% (inactive) | –
23 | S=C(Nc1ccc(Oc2ccccc2)cc1)NC1CCCCCC1 | 12.1% (inactive) | –

Row | SMILES | activity change, negative = toxicity (at 50 µM (top of the series)) | activity change, negative = toxicity (at 5.6 µM (top of the series))
24 | COc1cccc(/C=N/NC(=O)c2nc(-c3ccccc3)cc(-c3ccccc3)n2)c1O | -8.68% (inactive) | –
25 | CC(C)=CCc1c(O)ccc(C(=O)Cc2ccccc2)c1O | -2.45% (inactive) | –
26 | O/N=C/c1cc(Br)ccc1OCc1ccccc1F | 7.25% (inactive) | –
27 | O=C(/C(=N/N=C/c1ccc(O)c(O)c1O)c1ccccc1)c1ccccc1 | -5.73% (inactive) | –
28 | O=C(N/N=C/c1ccc[nH]1)c1sc2ccccc2c1Cl | -15.3% (inactive) | –
29 | O=S(=O)(Nc1ccccc1)c1ccc(Oc2ncc(C(F)(F)F)cc2Cl)cc1 | 13% (inactive) | –
30 | O=[N+]([O-])c1cc(C(F)(F)F)ccc1NCCc1c[nH]c2ccc(O)cc12 | -9.08% (inactive) | –
31 | Cc1cc(/C=C2\SC(=S)N(C)C2=O)c(C)n1-c1ccc(O)cc1 | 6.11% (inactive) | –
32 | COc1cccc(C(C)=C2SC(=S)NC2=O)c1 | 1.04% (inactive) | –
33 | COc1ccc(-c2cc(C(=O)N3CCN(c4ccccc4F)CC3)c3ccccc3n2)c(OC)c1 | -9.73% (inactive) | –
34 | O=P(Nc1cccnc1)(Oc1ccccc1Cl)Oc1ccccc1Cl | -1.87% (inactive) | –
35 | CC1(C)C2CCC1(C)C(OC(=O)c1ccc(O)cc1)C2 (stereo unspecified) | -0.777% (inactive) | –
36 | Cc1cccc(Nc2nc(-c3ccc(O)cc3O)cs2)n1 | 0.061% (inactive) | –
37 | COc1ccc(N(C(=O)c2ccncc2)S(=O)(=O)c2ccc(F)cc2)cc1 | 0.026% (inactive) | –
38 | O=C(NCCC1=CCCCC1)c1c(O)nc2sccn2c1=O | 15.1% (inactive) | –
39 | COc1cnc(-c2ccccn2)nc1Sc1ccc(C)cc1 | -14.4% (inactive) | –
40 | C=CCN(CC=C)C(=S)NC(=O)c1ccc(C)c(Br)c1 | 19.7% (inactive) | –
41 | CCCOc1ccc(S(=O)(=O)n2cc(F)c(=O)[nH]c2=O)cc1 | 10.7% (inactive) | –
42 | O=[N+]([O-])c1ccc2c(OCc3nnc(-c4ccccc4Br)o3)ncnc2c1 | -6.18% (inactive) | –
43 | COc1ccc(N(C)S(=O)(=O)c2ccc(Cl)c(C(=O)NNC(=O)c3ccccc3O)c2)cc1 | 3.26% (inactive) | –
44 | O=c1c2ccccc2c(-c2ccc(O)cc2)nn1-c1cccc(C(F)(F)F)c1 | -18.6% (inactive) | –
45 | CC(C)(C)C(=O)C(Oc1ccc(Cl)cc1)n1cncn1 (stereo unspecified) | 9.05% (inactive) | –
46 | Cn1ccc(=Nc2ccc(NC(=O)c3ccc(N=c4ccn(C)c5ccc([N+](=O)[O-])cc45)cc3)cc2)cc1 | 1.51% (inactive) | –

Row | SMILES | activity change, negative = toxicity (at 50 µM (top of the series)) | activity change, negative = toxicity (at 5.6 µM (top of the series))
47 | COc1cc(/C=N/O)cc(Br)c1OCc1cccc(Cl)c1 | 3.56% (inactive) | –
48 | C=C(C)COc1ccc(-c2[nH]ncc2-c2ccccc2)c(O)c1 | -16.4% (inactive) | –
49 | CC(C)CSc1n[nH]c(=S)s1 | 9% (inactive) | –
50 | Clc1ccc(-c2n[nH]c3c2CCC3)cc1Cl | 1.25% (inactive) | –
51 | CCC(C)c1ccc(NC(=S)NCCn2cc(Br)cn2)cc1 (stereo unspecified) | 16.1% (inactive) | –
52 | O=C(Nc1nnc(-c2ccccc2)o1)c1ccc(Cl)cc1 | 29.9% (inactive) | –
53 | CCC(NC(=S)NCc1ccc(F)cc1)c1ccc(C(C)C)cc1 (stereo unspecified) | 41.2% (inactive) | –
54 | Clc1nc(-c2ccccn2)nc2scc(-c3ccccc3)c12 | 5.16% (inactive) | –
55 | C(=C1c2ccccc2-c2ccccc21)c1ccncc1 | 14.2% (inactive) | –
56 | CCCn1c2ccccc2c2cc(C(=O)O)ccc21 | -3.19% (inactive) | –
57 | CN1CCN(C(=O)c2cc(COc3ccc(F)cc3Cl)on2)CC1c1ccccc1 (stereo unspecified) | 14.2% (inactive) | –
58 | CCC(Oc1ccc(Br)cc1Cl)C(=O)Nc1nnc(C2CC2)s1 (stereo unspecified) | 5.54% (inactive) | –
59 | COC(OC)c1ccc(C#N)c(SCc2ccccc2)n1 | -6.85% (inactive) | –
60 | CCn1c2ccc(C)cc2c2nc3cc(C(=O)O)ccc3nc21 | -4.25% (inactive) | –
61 | O=C1c2ccccc2-n2c1nc1ccccc1c2=O | -25.8% (inactive) | –
62 | Cc1ccc(Sc2cc(C)nc(-c3ccccn3)n2)cc1 | 11.7% (inactive) | –
63 | FC(F)(F)c1cccc(N2CCc3cn[nH]c32)c1 | -9.14% (inactive) | –
64 | CCOC(=O)c1ccc(N2C(=O)CC(N3CCC(O)(c4ccc(Cl)cc4)CC3)C2=O)cc1 (stereo unspecified) | -0.824% (inactive) | –
65 | CC(C)C(=O)NC(c1cccc([N+](=O)[O-])c1)c1ccc2cccnc2c1O (stereo unspecified) | – | -21% (inactive)
66 | NC(=Nc1nc(-c2ccccn2)cc2ccccc12)c1ccccn1 | -27.1% (inactive) | –
67 | CCN(CC)C(=O)CSc1ncnc2sc(-c3ccccc3)cc12 | 9.41% (inactive) | –
68 | CC1CCc2c(C(=O)Nc3ccccn3)csc2C1 (stereo unspecified) | -3.05% (inactive) | –
69 | C[C@@]12CCC3[C@@](CCC4[C@@]3(C)CCC[C@@]4(C)C(=O)NCc3ccccc3)(CC1=O)C2 (stereo partly specified) | 2.89% (inactive) | –

Row | SMILES | activity change, negative = toxicity (at 50 µM (top of the series)) | activity change, negative = toxicity (at 5.6 µM (top of the series))
70 | O=C(CN1CC[n+]2c(-c3cccs3)csc21)c1ccc(-c2ccccc2)cc1 | 28% (inactive) | –
71 | Cc1cc(Cl)ccc1C(=O)C1CCCN(C(=O)c2cncs2)C1 (stereo unspecified) | 14.2% (inactive) | –
72 | CCN(CC)c1ccc(/C=N/NC(=O)c2c(Cl)cnn2C)c(O)c1 | -24.5% (inactive) | –
73 | Nc1nc(-c2ccc(Oc3ccccc3)cc2)cs1 | 6.84% (inactive) | –
74 | Cc1nc(SCc2ccc(OCCC(C)C)cc2)n[nH]1 | 3.46% (inactive) | –
75 | Cc1cccc(Oc2nc(-c3ccccn3)nc3ccccc23)c1 | 18.9% (inactive) | –
76 | CC(C)(C)C(O)C(Cc1ccccc1Cl)n1cncn1 (stereo unspecified) | -1.54% (inactive) | –
77 | Clc1ccc(COC(Cn2ccnc2)c2ccc(Cl)cc2Cl)c(Cl)c1 (stereo unspecified) | 5.58% (inactive) and 0.687% (inactive) | –
78 | O=c1c2ccccc2nc(-c2ccc(-c3ccccc3)cc2)n1-c1ccncc1 | 4% (inactive) | –
79 | O=C(CC1CC2CCC1C2)Nc1nc(-c2ccccn2)cs1 (stereo unspecified) | 10.2% (inactive) | –
80 | O=C(CSc1ccc(-c2ccccn2)nn1)NCc1ccc(F)cc1 | -2.59% (inactive) | –
81 | S=C(NCc1ccco1)Nc1ccc(Oc2ccc(Cl)cc2)cc1 | 10.2% (inactive) | –
82 | COc1cc2cnc(-c3ccccc3)c(C(=O)c3ccc(F)cc3)c2cc1OC | 26.6% (inactive) | –
83 | COc1cnc(-c2ccccn2)nc1Sc1ccccc1 | 9.22% (inactive) | –
84 | Cc1ccc2c(C)c3ccc4ccccc4c3c[n+]2c1 | 11.9% (inactive) | –
85 | Cc1ccc(C)c(/C=C/C(=O)c2ccccc(=O)c2O)c1 | -4.58% (inactive) | –
86 | COc1ccc2[nH]c(=O)c(CN(Cc3cccnc3)C(=O)Nc3ccccc3)cc2c1 | -11.7% (inactive) | –
87 | COc1cc(NS(=O)(=O)c2ccc(C)cc2)c2ncccc2c1 | 5.44% (inactive) | –
88 | c1ccc(CSc2ccc(-c3ccccn3)nn2)nc1 | -13% (inactive) | –
89 | Oc1c(I)cc(Cl)c2cccnc12 | -13.1% (inactive) | –
90 | COc1cc2c(c(OC)c1OC)-c1ccc(O)c(=O)cc1[C@@H](NC(C)=O)CC2 | 4.18% (inactive) | –
91 | CCCCCCCn1c(=O)c(C(=O)OC)c(N)c2ccccc21 | -3.81% (inactive) | –
